The values below come from article PMC10649752, “Design and Synthesis of Novel Chalcone Derivatives: Anti-Breast Cancer Activity Evaluation and Docking Study” (International Journal of Molecular Sciences, 2023).

Common to all, as to format: cell-based
Experiment [1] concerns MCF-7 cells. Kind of experiment: CCK-8 antiproliferative activity on MCF-7 cells. How it is done: (§1) DMEM high glucose medium and fetal calf serum were obtained from Gibco (New York, NY, USA), and cell counting Kit-8 solution was purchased from Meilunbio (Dalian, China). Paraformaldehyde and Crystal Violet were purchased from Biosharp (Hefei, China). The MCF-7 and L-02 cell lines were purchased from the Shanghai Institute of Biochemistry (Shanghai, China) All the target compounds and 5-fluorouracil (5-Fu) were dissolved with DMSO at a concentration of 20 mM. Cell culture medium was a mixture of DMEM medium, 10% fetal bovine serum, and 1% penicillin–streptomycin solution stored at […]. The cells were grown at 37 °C under 5% CO2.
(§2) Cells were seeded into 96 well plates with 4000 cells/well using DMEM solution and incubated in a humid atmosphere containing 5% CO2 at 37 °C for 24 h. Compounds with different concentrations (200 μM, 100 μM, 50 μM, 25 μM, 12.5 μM, 6.25 μM, 3.125 μM, 1.5625 μM) were added to the culture medium for 24 h. After that, CCK-8 reagent (10 μL) was added under dark conditions and incubated the plate in a CO2 incubator at 37 °C for 2 h. After incubation, the absorbance was measured using an enzyme-linked immunosorbent assay at a wavelength of 450 nm. Cell survival rate was calculated as a percentage of the control group.
(§3) By using Graph Pad Prism 8.0 software, the concentration that inhibits 50% of maximum cell proliferation was determined to be IC50 value.

In experiment [2] the test system is human normal hepatocyte L-O2. Kind of experiment: CCK-8 cytotoxicity against normal hepatocyte L-O2 cells. The settings on record: for IC50: human normal hepatocyte L-O2, CCK-8, 24 h. How it is done:
We have selected compounds A7, A8, A9, and A14 with relatively low IC50 values, which are considered to have more potential and are more meaningful for further research. The toxic effects of compounds A7, A8, A9, and A14 on normal hepatocytes cells L-O2 were assessed in this work to examine the selective toxicity of the new compounds on cancer cells without harming normal cells. The selectivity index was calculated as a ratio of L-02 IC50/MCF-7 IC50 for these four compounds. […] Therefore, A8 and A14 were chosen as representative medications for future research after thorough evaluation.
as §1, §2, §3

The test system of experiment [3] is MCF-7 cells. Kind of experiment: Migration ability assay (wound healing / scratch). The settings on record: various concentrations, 24 h and 48 h, vs control group. On the procedure: An obvious feature of breast cancer cells is their strong migration ability. In order to study the inhibitory effect of compounds on breast cancer cells migration, the scratch distances of compounds A8 and A14 on MCF-7 cells at different concentrations were measured by wound healing experiments. […] Moreover, under similar concentrations, the inhibitory migration effect of the target compound on MCF-7 is more excellent than that of the control drug 5-Fu.
MCF-7 cells were seeded into six-well plates at a density of 3000 cells/well and growing for 24 h. Scratches were made in confluent monolayers with 200 μL pipette tip. After that, each well was washed with PBS buffer 3 times to remove non-adherent cell debris. MCF-7 cells were continually incubated with different concentrations of compounds or positive control for 24 or 48 h. The area of cells migrated across the wound was photographed using phase contrast microscopy at 0 h, 24 h, and 48 h. The migration distance of cells into the wound area was measured by ImageJ2 software at room temperature.

Experiment [4] has as its system MCF-7 cells. Briefly: Cell colony formation assay. The settings on record: 7 days treatment, drug concentrations greater than 8 µmol/L, vs blank control. On the procedure:
MCF-7 cells were seeded into six-well plates at a density of 1000 cells/well and cultivated for 24 h. After that, the cells were continually incubated with different concentrations of compounds and positive control for 7 days. Each well was carefully rinsed three times with PBS buffer quickly at room temperature. Collected cells were fixed for 1 h at room temperature by adding 2 mL of 4% paraformaldehyde solution. The results were analyzed using the ImageJ software.

Entries after “also recorded” stand apart in the source; their conditions may differ.

For `O=c1[nH]cc(F)c(=O)[nH]1` [Compound 5-Fu, 5-fluorouracil, reference compound], the IC50 in experiment [1] (Homo sapiens, MCF7, CCK-8, 24 h treatment) amounted to 169 µM; in experiment [2], 200 µM. In experiment [2] (ratio L-02 IC50/MCF-7 IC50), the “Selectivity Index (SI)” value was determined as 1.18.
Consider `COc1cc(C(=O)/C=C/c2ccc(C(=O)NCc3cccs3)cc2)cc(OC)c1OC` [Compound A7, (E)-4-(3-oxo-3-(3,4,5-trimethoxyphenyl)prop-1-en-1-yl)-N-(thiophen-2-ylmethyl) benzamide], for which, in experiment [1] (CCK-8, 24 h treatment), the midpoint of inhibition, the IC50, lay at 19.1 µM.
For `COc1cc(C(=O)/C=C/c2ccc(C(=O)NCC3CCOC3)cc2)cc(OC)c1OC` (stereo not drawn) [Compound A8, (E)-4-(3-oxo-3-(3,4,5-trimethoxyphenyl)prop-1-en-1-yl)-N-((tetrahydrofuran-3-yl)methyl) benzamide], the IC50 in experiment [1] (CCK-8, 24 h treatment) worked out at 16.7 µM; in experiment [2] it was 47.2 µM. For the same molecule, the “Inhibition of MCF-7 cell migration (scratch distance)” value in experiment [3] is “inhibited MCF-7 cell migration; also recorded: effectively inhibited the migration of MCF-7 cells in a dose-dependent manner”.
With `COc1cc(C(=O)/C=C/c2ccc(C(=O)NCC3CC3)cc2)cc(OC)c1OC` [Compound A9, (E)-N-(cyclopropylmethyl)-4-(3-oxo-3-(3,4,5-trimethoxyphenyl)prop-1-en-1-yl) benzamide], the IC50 in experiment [1] (CCK-8, 24 h treatment) is 19.6 µM; in experiment [2] it was 35.3 µM.
For `COc1cc(C(=O)/C=C/c2ccc(C(=O)OCCCSc3ccncc3)cc2)cc(OC)c1OC` [Compound A14, 3-(pyridin-4-ylthio) propyl (E)-4-(3-oxo-3-(3,4,5-trimethoxyphenyl)prop-1-en-1-yl) benzoate], it took 41.2 µM to reach half-maximal inhibition in experiment [2] (IC50). In addition, the “Inhibition of MCF-7 cell migration (scratch distance)” value in experiment [3] is reported as “inhibited MCF-7 cell migration; also recorded: effectively inhibited the migration of MCF-7 cells in a dose-dependent manner”. Besides, the “Colony formation of MCF-7 cells” value in experiment [4] is listed as “significantly reduced”.

By IC50 is commonly meant the concentration needed to halve the response being measured. The low end stands for higher potency, the high end for lower potency.
